The source of these data is patent publication US20250020635A1, “ASSAY METHODS AND USES THEREOF FOR SCREENING ALZHEIMER'S DISEASE TREATMENT COMPOUNDS” (priority 2023, published 2025).

Each structure is given as a SMILES string. Like-named read-outs stand apart in the source and are kept apart here. Where only a bound is given, the exact number is not on record here.

In this experiment the target is T1, PLCγ2-HiBit (Homo sapiens, UniProt P16885).
T1 construct: expressed in transfected cells; host or cells: HMC3 cells
T1 sequence (P16885 1-1265): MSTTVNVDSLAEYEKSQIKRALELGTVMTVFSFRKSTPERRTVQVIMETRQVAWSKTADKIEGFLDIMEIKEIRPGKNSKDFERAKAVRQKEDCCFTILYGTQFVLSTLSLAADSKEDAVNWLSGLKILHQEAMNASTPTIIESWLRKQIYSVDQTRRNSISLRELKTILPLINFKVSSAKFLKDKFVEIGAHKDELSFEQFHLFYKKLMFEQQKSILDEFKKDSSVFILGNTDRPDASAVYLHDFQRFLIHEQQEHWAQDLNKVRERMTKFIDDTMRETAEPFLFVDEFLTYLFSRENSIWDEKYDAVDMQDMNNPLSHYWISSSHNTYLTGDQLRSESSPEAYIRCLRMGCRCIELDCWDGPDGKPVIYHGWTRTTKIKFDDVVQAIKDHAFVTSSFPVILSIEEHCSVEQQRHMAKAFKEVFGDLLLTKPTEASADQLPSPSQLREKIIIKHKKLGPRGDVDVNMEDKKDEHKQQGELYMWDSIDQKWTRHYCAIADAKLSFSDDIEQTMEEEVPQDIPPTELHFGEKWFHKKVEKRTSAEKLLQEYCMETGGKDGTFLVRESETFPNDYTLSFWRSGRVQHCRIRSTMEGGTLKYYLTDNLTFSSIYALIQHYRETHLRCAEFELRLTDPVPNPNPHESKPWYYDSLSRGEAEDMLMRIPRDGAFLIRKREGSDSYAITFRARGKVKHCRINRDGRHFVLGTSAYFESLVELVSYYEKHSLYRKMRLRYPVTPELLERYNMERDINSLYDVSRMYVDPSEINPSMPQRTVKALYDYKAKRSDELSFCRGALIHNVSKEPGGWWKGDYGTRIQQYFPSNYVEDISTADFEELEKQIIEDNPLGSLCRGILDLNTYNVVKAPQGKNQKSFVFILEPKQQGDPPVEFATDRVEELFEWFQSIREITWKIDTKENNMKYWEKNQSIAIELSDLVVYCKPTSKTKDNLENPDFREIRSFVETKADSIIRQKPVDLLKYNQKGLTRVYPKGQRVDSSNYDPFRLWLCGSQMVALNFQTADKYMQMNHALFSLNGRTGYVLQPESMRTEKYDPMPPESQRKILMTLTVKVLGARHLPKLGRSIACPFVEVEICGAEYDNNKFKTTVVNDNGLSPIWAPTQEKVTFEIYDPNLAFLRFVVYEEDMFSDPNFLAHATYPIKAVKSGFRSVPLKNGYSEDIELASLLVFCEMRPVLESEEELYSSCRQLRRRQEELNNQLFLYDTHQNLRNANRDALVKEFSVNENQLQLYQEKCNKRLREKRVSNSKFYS
Nature of the experiment: Cellular thermal shift assay (SplitLuc CETSA), PLCγ2-HiBit in HMC3 cells. Format: cell-based. Particulars: for PLCγ2-HiBit %, percent luminescence at highest dose compared to control (DMSO): 100 μM. An excerpt: These compounds have been evaluated using a wide variety of assay classes namely target engagement utilizing cellular thermal shift assay (CETSA),^34 affinity selection mass spectrometry (ASMS),^35 biochemical activity employing the fluorogenic probe XY-69,^36 and cellular activity testing for phagocytosis. Cellular Thermal Shift Assays (CETSA) assess cellular target engagement by quantifying changes in protein thermal stability upon ligand binding to endogenous proteins in intact cells.^34 For SAR studies, a split Nano Luciferase (SplitLuc CETSA) version of the assay was utilized to provide sufficient throughput.^37,38 HMC3 cells were stably transfected with PLCγ2-HiBit to enable protein expression in a physiologically relevant cellular context. The thermal stability of this HiBit-labeled protein in intact cells was measured in the following two formats. In the initial screen, using 96-well plates, cells were treated with FBS analogs at a single concentration (100 μM) at 37° C. for 60 min and then exposed to a 3-minute isothermal heating step at 45.9° C. (experimentally determined Tm of PLCγ2-HiBit). Luminescence detection was then conducted with the Nano-Glo HiBit Lytic detection kit (Promega, Cat. N3040).^38 Compound treatment was performed in triplicate, and raw signals were normalized to the mean of the controls (in the same plate) as % of control. When the difference in compound-treated cells >control mean+3SD, the compound was considered positive and selected for further testing with dose-response CETSA. In the dose response CETSA, cells were treated with decreasing concentrations from 100 μM with 1:3 serial dilutions to generate an 8-point curve. An AC50 was calculated with the % of control data using a four-parameter logistic curve regression model, and the percent luminescence remaining at the highest concentration is also reported for the compounds when the difference from the DMSO control is greater than 3× the standard deviation (SD). Otherwise, an AC50 was not calculated.

Consider `Cc1cc(C)c(S(=O)(=O)Nc2cccc(C(F)(F)F)c2)c(C)c1` [Compound 1, 2,4,6-trimethyl-N-(meta-3-trifluoromethyl-phenyl)-benzenesulfonamide, reference compound], for which the “PLCγ2-HiBit %, percent luminescence at highest dose compared to control (DMSO)” value (“PLCγ2-HiBit %, percent luminescence” below) is 105%. Further, for the setting “Table 1”, the “PLCy2-HiBit % @100” value came to 105%.

With `Cc1cc(C)c(S(=O)(=O)Nc2ccccc2C(F)(F)F)c(C)c1` [Compound 2, o-3M3FBS, reference compound], the “PLCγ2-HiBit %, percent luminescence” value came out at 102%. Besides, under “Table 1”, the “PLCy2-HiBit % @100” value was found to be 102%.

As for `O=S(=O)(Nc1ccc(Br)cc1F)c1cccs1` [Compound 8], the “PLCγ2-HiBit %, percent luminescence” value amounted to 66%. Further, the “PLCy2-HiBit % @100” value (Table 1) is 66%. Also, the AC50 (Table 1, CETSA dose response, read-out: AC50) was greater than 100 µM. Further, the AC50 (Table 5, 8-point dose response from 100 μM, HMC3 cells, 45.9° C., read-out: AC50, concentration that induced a half-maximum loss of luminesce compared to control) was greater than 100 µM.

As to `Cc1cc(C)c(S(=O)(=O)NC2CCCNC2)c(C)c1` (stereo not drawn) [Compound 11], the “PLCγ2-HiBit %, percent luminescence” value is 64%.
